Data taken from the SangsterLogP compilation.

Compound	logP
FC(Cl)(Cl)Cl	2.26
FC(F)=CCl	1.52
FC(Cl)C(F)(F)F (stereo unspecified)	1.75
FCC(F)(F)F	1.06
FCC(F)Cl (stereo unspecified)	1.62
FC(F)C(F)(F)F	1.45
FC(F)(F)F	1.36
FCC(F)(F)Cl	1.45
FC(F)=C(F)C(F)(F)F	1.98
FC(C(F)(F)F)C(F)(F)F	2.22
CC(F)(Cl)Cl	1.95
